Values quoted from earlier work as cited in patent publication US20240279338A1, “Combination Treatment of Cancer” (Ares Trading S.A., priority 2021, published 2024).

Target: T1, A3 receptor (Homo sapiens, UniProt P0DMS8)
T1 sequence (P0DMS8 1-318): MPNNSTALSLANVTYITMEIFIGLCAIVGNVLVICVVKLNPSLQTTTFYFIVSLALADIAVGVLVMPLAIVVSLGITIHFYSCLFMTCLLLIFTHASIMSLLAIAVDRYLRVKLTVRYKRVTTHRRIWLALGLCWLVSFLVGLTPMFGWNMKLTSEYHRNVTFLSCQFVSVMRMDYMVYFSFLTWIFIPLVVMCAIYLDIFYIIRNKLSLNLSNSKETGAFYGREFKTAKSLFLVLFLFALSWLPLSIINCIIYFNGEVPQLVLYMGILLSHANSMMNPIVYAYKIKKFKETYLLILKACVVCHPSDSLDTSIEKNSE
Conditions: cited from earlier work

Nc1ncnc2c1ncn2[C@@H]1O[C@H](CO)[C@@H](O)[C@H]1O [adenosine]
adenosine sensitivity (affinity) of receptor: 100 nM
